Where two headings read alike, the source gives them in different places.
Assays:
[1] = test system: IL-18
Experimental: A randomized, double-blind, placebo-controlled study was administered over six cycles. Patients were treated with chlorite 2 mg/kg/infusion, or placebo. Patients were scheduled to receive a total of 20 infusions over 6 cycles during a 25-week (or 6-month) treatment period. […] Levels of biomarkers can be measured with techniques known in the art, e.g., ELISA or flow cytometry.

[2] = test system: IL-18; details: 1-2 mg/kg/infusion, 6 months; for plasma level of IL-18 after treatment: responders
Experimental: Thirty two patients diagnosed with ALS were treated with chlorite over the course of 6 months. The initial plasma concentration of IL-18 in each patient was recorded and set as the baseline level. Patients were treated with 1-2 mg/kg/infusion chlorite over the course of 6 months. ALSFRS-R scores and IL-18 levels were recorded at different time points during the treatment and compared with the initial concentration.

[3] = test system: ALS patients; details: for ALSFRS-R level over the course of treatment: 1-2 mg/kg/infusion, 6 months
Experimental: Patients diagnosed with ALS are treated with chlorite over the course of 6 months. Based upon the initial concentration of IL-18 at the baseline or its baseline level, patients are sorted into two groups. Patients with baseline level of IL-18 higher than 60 pg/mL are assigned in IL-18-high group and patients with baseline level of IL-18 lower than 60 pg/mL are assigned in IL-18-low group. Both groups are treated with 1-2 mg/kg/infusion chlorite over the course of 6 months. ALSFRS-R scores and IL-18 levels are recorded at different time points during the treatment and compared between IL-18-high and IL-18-low groups.

[4] = test system: ALS patients; details: for mean decrease in ALSFRS-R score: 3-month off-drug follow-up; for estimated ALSFRS-R slope: patients less than the baseline median wr-CRP; for estimated ALSFRS-R slope decline: patients with baseline wrCRP at or above the median
[5] = test system: ALS patients; details: for decline in vital capacity: at least 6 months of treatment
Experimental: (§1) A randomized, double-blind, placebo-controlled study was administered over six cycles. Patients were treated with chlorite 2 mg/kg/infusion, or placebo. […] Samples from both responders and non-responders were collected and tested at different time points, e.g., at baseline (pre-dose Cycle 1, Week 1), 1-month, 2-month, 3-month, 4-month, 5-month and 6-month. ALSFRS-R scores and biomarkers levels were measured in responders and non-responders at selected time points and compared to the placebo group.

[6] = test system: LPS; details: for responders with decreased LPS: at least 6 months of treatment
Experimental: as §1

[7] = test system: CD16 expression on CD16 bright monocytes; details: 0.2-3.2 mg/kg single dose, 24 hours after dosing
[8] = test system: ALS patients; details: 1-2 mg/kg/infusion, at least 6 months
[9] = test system: AD patients; details: 1-2 mg/kg/infusion, 6 months
[10] = test system: PD patients; details: 1-2 mg/kg/infusion, 6 months
[11] = test system: G93A SOD1 congenic strain of mice; details: preliminary studies (McGrath et al., 2010); cited from earlier work

sodium chlorite [NP001]
responders with decreased IL-18 ([1]; high dose responders, at least 6 months of treatment): 80%
responders with decrease in IL-18 ([1]; low dose group responders (8), at least 6 months of treatment): 1 patient
change of plasma IL-18 level from baseline ([1]; non-responders, after 25 weeks): increase
change of plasma IL-18 level from baseline ([1]; responders, after 25 weeks of treatment): decrease
number of non-responders ([2]; 32 ALS patients): 22
number of responders ([2]; 32 ALS patients): 10
plasma level of IL-18 after treatment [2]: decreased
plasma level of IL-18 after treatment ([2]; listed as chlorite/NP001): capable of lowering IL-18 plasma level
ALSFRS-R level over the course of treatment ([3]; IL-18-high group (baseline IL-18 higher than 60 pg/mL)): stabilizes
decrease in IL-18 baseline level ([3]; IL-18-high vs IL-18-low group): can only be observed in IL-18-high group
ALSFRS-R level over the course of treatment ([3]; IL-18-low group (baseline IL-18 lower than 60 pg/mL)): no stabilization
effect on ALSFRS-R slope and change from baseline compared to placebo ([4]; 1 mg/kg): minimal or no effect dose
mean decrease in ALSFRS-R score ([4]; 1 mg/kg): −3.7
estimated ALSFRS-R slope ([4]; 1 mg/kg): −1.38
estimated ALSFRS-R slope decline ([4]; 1 mg/kg): −0.73 points per month
mean decrease in ALSFRS-R score ([4]; 2 mg/kg): −3.3
ALSFRS-R mean slope ([4]; 2 mg/kg, 6 months of treatment (Weeks 1 through 25)): −0.77 points per month
percent change in ALSFRS-R mean slope compared to placebo ([4]; 2 mg/kg, 6 months, concurrent placebo): 13%
improvement in rate of progression compared to placebo ([4]; 2 mg/kg, baseline wrCRP at or above the median, p=0.2): 41%
estimated ALSFRS-R slope ([4]; 2 mg/kg): −0.87
estimated ALSFRS-R slope decline ([4]; 2 mg/kg): −0.55 points per month
slowing of change in ALSFRS-R from baseline ([4]; 2 mg/kg, with addition of matched historical placebo control patients): 21%
improvement in the rate of progression compared to combined placebo controls ([4]; 2 mg/kg, with matched historical placebo controls, p=0.16): 19%
slowing of change in ALSFRS-R from baseline ([4]; 2 mg/kg, without addition of matched historical placebo control patients): 17%
slower functional decline (residual) in mean change in ALSFRS-R compared to placebo ([4]; high dose (2 mg/kg), off-drug follow-up): 11%
disease progression of ALS patients ([5]; 2 mg/kg, patients with high plasma level of IL-18, IL-6, INF-g, and CPR): capable of slowing the disease progression
percentage of patients who did not progress (responders) ([5]; high dose group (2 mg/kg), 6-month treatment period): 27%
percentage of non-progressing patients relative to placebo group ([5]; high dose group vs placebo (11%)): approximately 2.5 times
decline in vital capacity ([5]; non-responders, 1 mg): −17.7+/−17.9
decline in vital capacity ([5]; non-responders, 2 mg): −14.5+/−13.2
ALSFRS-R score over the 6-month treatment period ([5]; responders): remained stable
decline in vital capacity ([5]; responders, 1 mg): −8.95+/−10.1
decline in vital capacity ([5]; responders, 2 mg): −3.76+/−5.7
responders with decreased LPS ([6]; high dose responders): 70%
responders with decreased LPS ([6]; low dose group responders (8)): half
LPS level at week 24 ([6]; non-responders, baseline about 0.35): about 0.2
decrease of LPS level from baseline ([6]; non-responders, week 24): about 40%
LPS level after treatment ([6]; responders, week 24, baseline about 0.3): undetectable level
decrease of LPS level from baseline ([6]; responders, week 24, calculated with minimum detection level about 0.075): about 75%
level of CD16 expression on the CD16 bright subset of monocytes vs placebo [7]: Dose-dependent changes
relationship between mean ALSFRS-R levels and mean baseline levels of biomarkers [8]: linear relationship with a positive slope
treatment of AD patients [9]: capable of treating AD patients
treatment of Parkinson's patients [10]: capable of treating Parkinson's patients
survival, treated compared to control mice [11]: significant survival improvement

— patent US20170106017A1 (priority 2014, published 2017)
